According to EP4509511A1, “SUBSTITUTED SPIRO-ISOXAZOLINYL LACTAMS, SALTS THEREOF AND THEIR USE AS HERBICIDALLY ACTIVE SUBSTANCES” (Bayer Aktiengesellschaft, priority 2023, dated 2025):

How the values were obtained:
POAAN = experiment: Herbicidal post-emergence action - Part I; assay type: in vivo, Poa annua; conditions: 1280 g/ha, one-leaf stage, rated visually after about 3 weeks vs untreated controls
Method in brief: (§1)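 Greenhouse weeds grown in sandy loam were sprayed post-emergence at the one-leaf stage, 2-3 weeks after sowing. Compounds were applied as WP or EC in water with 0.5% additive at 600 L/ha, at 1280 g/ha or below. Visual damage was rated after about 3 weeks versus untreated plants (0-100%).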

VERPE [1] = experiment: Herbicidal post-emergence action - Part I; assay type: in vivo, Veronica persica; conditions: one-leaf stage, rated visually after about 3 weeks vs untreated controls
Method in brief: as §1

AVEFA = experiment: Herbicidal pre-emergence action - Part II; assay type: in vivo, Avena fatua; conditions: 320 g/ha; Table C4
Description: (§2) Seeds of mono- and dicotyledonous weed plants and crop plants were sown, in plastic or organic planting pots, in sandy loam and covered with soil. The compounds according to the invention, formulated in the form of wettable powders (WP) or as emulsifiable concentrates (EC), were applied to the surface of the covering soil as aqueous suspension or emulsion, with the addition of 0.5% of an additive, at an application rate of 600 1 of water/ha (converted). Following treatment, the pots were placed in a greenhouse and kept under optimum growth conditions for the test plants. The visual grading of the damage to the test plants was carried out after ca. 3 weeks in comparison to untreated controls (herbicidal effect in percent (%): 100% effect = plants have died off, 0% effect = as control plants). Tables C1 to C12 below show the effects of selected compounds of the general formula (I) according to table 1 on various harmful plants and an application rate corresponding to 320 g/ha or below obtained by the experimental procedure mentioned above. Table C1: pre-emergence activity at 320g/ha against ABUTH in %

MATIN = experiment: Herbicidal pre-emergence action - Part II; assay type: in vivo, Matricaria inodora; conditions: 320 g/ha; Table C8
Description: as §2

SETVI = experiment: Herbicidal pre-emergence action - Part II; assay type: in vivo, Setaria viridis
Description: as §2

GLXMA = experiment: Pre-emergence effects on crop plants; assay type: in vivo, Glycine max; conditions: crop plant
Description: (§3) Seeds of mono- and dicotyledonous weed plants and crop plants were sown, in plastic or organic planting pots, in sandy loam and covered with soil. The compounds according to the invention, formulated in the form of wettable powders (WP) or as emulsifiable concentrates (EC), were applied to the surface of the covering soil as aqueous suspension or emulsion, with the addition of 0.5% of an additive, at an application rate of 600 1 of water/ha (converted). Following treatment, the pots were placed in a greenhouse and kept under optimum growth conditions for the test plants. The visual grading of the damage to the test plants was carried out after ca. 3 weeks in comparison to untreated controls (herbicidal effect in percent (%): 100% effect = plants have died off, 0% effect = as control plants). Tables D1 to D5 below show the effects of various compounds of the general formula (I) according to Table 1 on various crop plants and an application rate corresponding to 320 g/ha or below obtained by the experimental procedure mentioned above in Biological Examples, Section C. Table […]: pre-emergence activity at 320g/ha against ZEAMX in %

AMARE = experiment: Herbicidal post-emergence action - Part I; assay type: in vivo, Amaranthus retroflexus; conditions: one-leaf stage, rated visually after about 3 weeks vs untreated controls
Method in brief: as §1

KCHSC = experiment: Herbicidal pre-emergence action - Part I; assay type: in vivo, Kochia scoparia; conditions: 1280 g/ha
Method in brief: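 Pre-emergence soil-surface spray, 1280 g/ha or lower, WP/EC formulations plus 0.5% additive, 600 l/ha water. Pots of sandy loam, double sowing mono/dicot weeds. Greenhouse, optimum conditions; % herbicidal effect scored visually at ~3 wk, 100% = plants died, 0% = as control.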

ABUTH = experiment: Herbicidal pre-emergence action - Part II; assay type: in vivo, Abutilon theophrasti; conditions: visual grading after ca. 3 weeks vs untreated controls
Description: as §2

ALOMY = experiment: Herbicidal pre-emergence action - Part I; assay type: in vivo, Alopecurus myosuroides; conditions: visual grading after ca. 3 weeks vs untreated controls
Description: (§4) Seeds of mono- and dicotyledonous weed plants were sown in plastic pots (double sowings with one species of mono- and one species of dicotyledonous weed plants per pot), in sandy loam, and covered with soil. The compounds according to the invention, formulated in the form of wettable powders (WP) or as emulsifiable concentrates (EC), were applied to the surface of the covering soil as aqueous suspension or emulsion, with the addition of 0.5% of an additive, at an application rate of 600 1 of water per hectare (converted). Following treatment, the pots were placed in a greenhouse and kept under optimum growth conditions for the test plants. The visual grading of the damage to the test plants was carried out after ca. 3 weeks in comparison to untreated controls (herbicidaleffectinpercent(%):100%effect=plantshavediedoff,0%effect=ascontrolplants). [formula]
(§5) Tables A1 to A12, below, show the effects of selected compounds of the general formula (I) according to table 1 on various harmful plants and an application rate corresponding to 1280 g/ha or below obtained by the experimental procedure mentioned above. Table A1: pre-emergence activity at 1280g/ha against ABUTH in %

VERPE [2] = experiment: Herbicidal pre-emergence action - Part I; assay type: in vivo, Veronica persica; conditions: visual grading after ca. 3 weeks vs untreated controls
Description: as §4, §5

BRSNW = experiment: Pre-emergence effects on crop plants; assay type: in vivo, Brassica napus; conditions: 80 g/ha; Table D5; crop plant
Description: as §3

[3] = Table A10a, visual grading after ca. 3 weeks vs untreated controls

Row | SMILES | post-emergence activity at 1280g/ha against POAAN in % (POAAN) [%] | post-emergence activity at 320g/ha against VERPE in % (VERPE [1]; 320 g/ha) [%] | post-emergence activity at 1280g/ha against VERPE in % (VERPE [1]; 1280 g/ha) [%] | pre-emergence activity against AVEFA (AVEFA) [%] | pre-emergence activity against MATIN (MATIN) [%] | pre-emergence activity against SETVI (SETVI; 80 g/ha, Table C10b) [%] | pre-emergence activity against SETVI (SETVI; 320 g/ha, Table C10a) [%] | pre-emergence activity against GLXMA (GLXMA; 80 g/ha, Table D4b) [%] | post-emergence activity at 1280g/ha against AMARE in % (AMARE) [%] | pre-emergence activity at 1280g/ha against KCHSC in % (KCHSC; 504 h) [%] | pre-emergence activity at 1280g/ha against KCHSC in % (KCHSC; [3]) [%] | pre-emergence activity at 320g/ha against ABUTH in % (ABUTH) [%] | pre-emergence activity at 1280g/ha against ALOMY in % (ALOMY) [%] | pre-emergence activity at 1280g/ha against VERPE in % (VERPE [2]) [%] | pre-emergence activity against BRSNW (BRSNW) [%] | pre-emergence activity against GLXMA (GLXMA; Table D4a, title: 320g/ha, application rate: 80 g/ha) [%] | post-emergence activity at 80g/ha against AMARE in % (AMARE; 80 g/ha) [%] | post-emergence activity at 320g/ha against AMARE in % (AMARE; 320 g/ha) [%]
1 | Cc1ccsc1C1=NOC2(CCCN(Cc3c(F)cccc3F)C2=O)C1 (racemic) [Compound I-2] | 90 | 90 | 90 | 80 | 90 | 100 | 100 | 0 | 90 | 90 | 90 | 80 | 90 | – | – | – | – | –
2 | Cc1ccsc1C1=NOC2(CCN(Cc3c(F)cccc3F)C2=O)C1 (racemic) [Compound I-16, 7-(2,6-Difluorobenzyl)-3-(3-methyl-2-thienyl)-1-oxa-2,7-diazaspiro[4.4]non-2-en-6-one] | 90 | – | – | – | – | – | 90 | 10 | – | – | 90 | – | 90 | 100 | 20 | 20 | – | –
3 | O=C1N(Cc2ccccc2F)CCC12CC(c1c(F)cccc1F)=NO2 (racemic) [Compound I-10] | – | – | – | – | – | – | 90 | 10 | 90 | 90 | 90 | – | – | 90 | 20 | – | 90 | 90
